In patent US11964978B2, “Modulators of STING (stimulator of interferon genes)” (PFIZER INC., priority 2021, dated 2024) one finds Ki and EC50 data, which are given here for 20 compounds.

Broadly, the Ki is a measure of affinity in units of concentration, obtained from inhibition or displacement. The term EC50 denotes the concentration giving half of the maximal effect.

A value given as a limit tells only on which side of the number the result lay.

The target of one assay is R232-STING (Homo sapiens (Human), UniProt Q86WV6, H232R). To be noted: read-out: R232-STING SPA-IC50 Ki; STING residues 155-341, 100 nM 3H-cGAMP; KI from IC50 with Cheng-Prusoff equation.
R232-STING, sequence (Q86WV6 155-341 H232R): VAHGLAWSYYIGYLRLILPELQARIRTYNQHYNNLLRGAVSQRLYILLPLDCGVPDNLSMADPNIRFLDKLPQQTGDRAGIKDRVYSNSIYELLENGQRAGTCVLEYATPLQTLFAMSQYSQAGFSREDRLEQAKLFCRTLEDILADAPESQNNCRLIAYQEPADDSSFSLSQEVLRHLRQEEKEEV
The test system of assay [1] is THP-1 Lucia ISG cells (IRF-inducible Lucia luciferase reporter). As to the kind of experiment: Interferon-β induction: THP-1 ISG reporter cell line. It counts as cell-based. To be noted: THP1-Lucia ISG, 24 hours incubation, read-out: THP-1 Lucia ISG Cells IFN-β EC50. The procedure:
Interferon-β Induction: THP-1 ISG Reporter Cell Line
THP-1 Lucia™ ISG cells (InvivoGen) express the secreted luciferase “Lucia” reporter gene under the control of an IRF-inducible composite promotor comprised of five interferon response elements. THP-1 Lucia™ ISG cells were grown in RPMI media plus 2 mM L-glutamine, 10% fetal bovine serum, and 0.5% Pen-Strep. Hygromycin B and Zeocin were present to maintain stable transfection. 10^4 cells were seeded in 96-well plates and incubated overnight 37° C., 5% CO2. 50 μL of serial diluted compounds in media (final 0.5% DMSO) was and incubated for an additional 24 hours. After incubation, the plates were centrifuged at 2000 rpm for 10 min. 50 μl of cell culture supernatant of each well was transferred to a white, opaque 96-well plate. One pouch of QUANTI-Luc™ (InvivoGen) powder was prepared in 25 mL of endotoxin-free water and 100 μL of prepared warm QUANTI-Luc solution were added to each well containing the supernatant. The luminescence signal was measured using a Perkin-Elmer Envision microplate reader. Data were normalized to “% effect” with a positive control STING agonist that was known to maximize the luciferase signal and the negative control DMSO.

Assay [2] relates to phosphorylation of IRF3 in THP-1 cells (STING activation). Briefly: Phosphorylation of IRF3: THP-1 cell ELISA. It counts as cell-based. As to conditions: Homo sapiens, 3 hours incubation, read-out: THP-1 CELL P-IRF3 EC50. The method, then: Phosphorylation of IRF3: THP-1 cell ELISA
STING activation results in recruitment of TBK1 and phosphorylation of IRF3 transcription factor before induction of type I interferons. THP-1 cells (InvivoGen) were grown in RPMI media plus 2 mM L-glutamine, 10% fetal bovine serum, and 0.5% Pen-Strep. 10^4 cells were seeded in 96-well plates and incubated overnight […]. Compounds serial diluted compounds in media (final 0.5% DMSO) were added to the cells and incubated for an additional 3 hours. After incubation, the plates were centrifuged at 2000 rpm for 5 min. The cells were then lysed in 100 μl RIPA buffer and vortexed for 30 minutes at room temperature. 25 μl of lysate was then transferred to clear polystyrene High Bind plates that had been previously coated with mouse anti-human IRF-3 capture antibody (BD Pharmigen), and allowed to incubate at 4° C. for 16 hours. The plates were then washed and incubated with rabbit anti-phospho-IRF3 detection antibody (Cell Signaling Technologies) for 1.5 hours at room temperature. Finally, an HRP-linked secondary antibody (Cell Signaling Technologies) was added for 30 min before the Glo Substrate Reagent (R&D Systems) was used generate the luminescent signal. The signal was measured using a Perkin-Elmer Envision microplate reader. Data were normalized to “% effect” with a positive control STING agonist that was known to maximize the phosphorylated IRF3 signal and the negative control was DMSO.
(An ELISA detects its analyte on a solid surface through an enzyme-linked reagent.)

Turning to `COCCCn1nc(C)c(O)c1-c1cn(C)c(-c2nc(C(N)=O)cc3c2cnn3C)n1` [AIF10, 4-{4-[4-hydroxy-1-(3-methoxypropyl)-3-methyl-1H-pyrazol-5-yl]-1-methyl-1H-imidazol-2-yl}-1-methyl-1H-pyrazolo[4,3-c]pyridine-6-carboxamide], on R232-STING, the inhibitory constant (Ki) is 1.3 nM. The results for the EC50 in assay [1] and in assay [2] were 30 nM and 70 nM, respectively.

Take `CCCn1nc(C)c(O)c1-c1cn(C)c(-c2nc(C(N)=O)cc3c2cnn3C)n1` [AIF11, 4-[4-(4-hydroxy-3-methyl-1-propyl-1H-pyrazol-5-yl)-1-methyl-1H-imidazol-2-yl]-1-methyl-1H-pyrazolo[4,3-c]pyridine-6-carboxamide]: the Ki at R232-STING worked out at 0.3 nM. Also, the results for the concentration for a half-maximal effect (EC50) in assay [1] and in assay [2] were less than 10 nM and 10 nM, respectively.

Turning to `CCn1nc(C)c(F)c1-c1cn(C)c(-c2nc(C(N)=O)cc3c2cnn3C)n1` [AIF12, 4-[4-(1-ethyl-4-fluoro-3-methyl-1H-pyrazol-5-yl)-1-methyl-1H-imidazol-2-yl]-1-methyl-1H-pyrazolo[4,3-c]pyridine-6-carboxamide], the Ki on R232-STING was determined as 2.4 nM. Moreover, the EC50 in assay [1] was determined as 370 nM; in assay [2], 310 nM.

As to `CCn1cc(-c2c(O)c(C)nn2CC)nc1-c1nc(C(N)=O)cc2c1cnn2C` [AIF13, 4-[1-ethyl-4-(1-ethyl-4-hydroxy-3-methyl-1H-pyrazol-5-yl)-1H-imidazol-2-yl]-1-methyl-1H-pyrazolo[4,3-c]pyridine-6-carboxamide], the Ki at R232-STING amounted to 2.9 nM. Besides, the results for the 50% effective concentration (EC50) in assay [1] and in assay [2] were 160 nM and 250 nM, respectively.

Turning to `Cc1cc(-c2cn(C)c(-c3nc(C(N)=O)cc4c3cnn4C)n2)n(CCCC(F)F)n1` [AIF14, 4-{4-[1-(4,4-difluorobutyl)-3-methyl-1H-pyrazol-5-yl]-1-methyl-1H-imidazol-2-yl}-1-methyl-1H-pyrazolo[4,3-c]pyridine-6-carboxamide], the Ki on R232-STING amounted to 28.2 nM. For the same compound, the EC50 in assay [1] was 1320 nM; in assay [2], 1370 nM.

In the case of `Cc1cc(-c2cn(C)c(-c3nc(C(N)=O)cc4c3cnn4C)n2)n(CCCC#N)n1` [AIF15, 4-{4-[1-(3-cyanopropyl)-3-methyl-1H-pyrazol-5-yl]-1-methyl-1H-imidazol-2-yl}-1-methyl-1H-pyrazolo[4,3-c]pyridine-6-carboxamide], the Ki on R232-STING is 46.6 nM. In addition, the results for the EC50 in assay [1] and in assay [2] were 1830 nM and 1350 nM, respectively.

With `Cc1cc(-c2cn(C)c(-c3nc(C(N)=O)cc4c3cnn4C)n2)n(C)n1` [AIH02, 4-[4-(1,3-dimethyl-1H-pyrazol-5-yl)-1-methyl-1H-imidazol-2-yl]-1-methyl-1H-pyrazolo[4,3-c]pyridine-6-carboxamide], the Ki on R232-STING is 22.7 nM. Also, the results for the EC50 in assay [1] and in assay [2] were 2560 nM and 4300 nM, respectively.

`CCCn1nccc1-c1cn(C)c(-c2nc(C(N)=O)cc3c2cnn3C)n1` [AIH03, 1-methyl-4-[1-methyl-4-(1-propyl-1H-pyrazol-5-yl)-1H-imidazol-2-yl]-1H-pyrazolo[4,3-c]pyridine-6-carboxamide]: the inhibition constant (Ki) on R232-STING came out at 148 nM. The figures for the concentration for a half-maximal effect (EC50) in assay [1] and in assay [2] were 6260 nM and 6580 nM, respectively.

As to `Cn1cc(-c2ccnn2C)nc1-c1nc(C(N)=O)cc2c1cnn2C` [AIH04, 1-methyl-4-[1-methyl-4-(1-methyl-1H-pyrazol-5-yl)-1H-imidazol-2-yl]-1H-pyrazolo[4,3-c]pyridine-6-carboxamide], on R232-STING, the inhibitory constant (Ki) is 151 nM. Further, the EC50 in assay [1] and in assay [2] was more than 10000 nM in each case.

Consider `CCn1nccc1-c1cn(C)c(-c2nc(C(N)=O)cc3c2cnn3C)n1` [AIH05, 4-[4-(1-ethyl-1H-pyrazol-5-yl)-1-methyl-1H-imidazol-2-yl]-1-methyl-1H-pyrazolo[4,3-c]pyridine-6-carboxamide], for which, on R232-STING, the Ki came out at 93.3 nM. The concentration giving a half-maximal response (EC50) in assay [1] and in assay [2] was more than 10000 nM throughout.

With `COCCCn1nc(C)cc1-c1cn(C)c(-c2nc(C(N)=O)cc3c2cnn3C(F)F)n1` [AIN02, 1-(difluoromethyl)-4-{4-[1-(3-methoxypropyl)-3-methyl-1H-pyrazol-5-yl]-1-methyl-1H-imidazol-2-yl}-1H-pyrazolo[4,3-c]pyridine-6-carboxamide], the Ki at R232-STING came to 20.9 nM. Moreover, the EC50 in assay [1] is 1200 nM; in assay [2], 990 nM.

In the case of `COCCCn1nc(C)cc1-c1cn(C)c(-c2nc(C(N)=O)cc3c2cnn3CF)n1` [AIN03, 1-(fluoromethyl)-4-{4-[1-(3-methoxypropyl)-3-methyl-1H-pyrazol-5-yl]-1-methyl-1H-imidazol-2-yl}-1H-pyrazolo[4,3-c]pyridine-6-carboxamide], the Ki at R232-STING was found to be 12.8 nM. Also, the results for the 50% effective concentration (EC50) in assay [1] and in assay [2] were 850 nM and 680 nM, respectively.

Regarding `CCn1nc(C)c(O)c1-c1cn(C)c(-c2nc(C(N)=O)cc3c2cnn3CC)n1` [AIN04, 1-ethyl-4-[4-(1-ethyl-4-hydroxy-3-methyl-1H-pyrazol-5-yl)-1-methyl-1H-imidazol-2-yl]-1H-pyrazolo[4,3-c]pyridine-6-carboxamide], the Ki at R232-STING stood at 2.9 nM. Moreover, the EC50 in assay [1] turned out to be 310 nM; in assay [2], 370 nM.

With `CCn1nc(C)cc1-c1cn(CCOC)c(-c2nc(C(N)=O)cc3c2cnn3C)n1` [AIP04, 4-[4-(1-ethyl-3-methyl-1H-pyrazol-5-yl)-1-(2-methoxyethyl)-1H-imidazol-2-yl]-1-methyl-1H-pyrazolo[4,3-c]pyridine-6-carboxamide], the Ki on R232-STING was 35.2 nM. Moreover, the values for the EC50 in assay [1] and in assay [2] were 1240 nM and 1140 nM, respectively.

Take `CCn1nc(C)cc1-c1cn(C)c(-c2nc(C(N)=O)cc3c2cnn3C)n1` [Example AIA01, 4-[4-(1-ethyl-3-methyl-1H-pyrazol-5-yl)-1-methyl-1H-imidazol-2-yl]-1-methyl-1H-pyrazolo[4,3-c]pyridine-6-carboxamide]: the Ki on R232-STING turned out to be 10.7 nM. The EC50 in assay [1] amounted to 820 nM; in assay [2], 670 nM.

Turning to `CCn1nc(C)cc1-c1cn(C)c(-c2nc(C(N)=O)cc3c2cnn3CC)n1` [Example AIC01, 1-ethyl-4-[4-(1-ethyl-3-methyl-1H-pyrazol-5-yl)-1-methyl-1H-imidazol-2-yl]-1H-pyrazolo[4,3-c]pyridine-6-carboxamide], the Ki on R232-STING turned out to be 12.1 nM. Further, the EC50 in assay [1] is 1170 nM; in assay [2] it was 1260 nM.

`CCc1nc(C)cn1-c1cn(C)c(-c2nc(C(N)=O)cc3c2cnn3C)n1` [Example AID01, 4-(2-ethyl-1′,4-dimethyl-1′H-[1,4′-biimidazol]-2′-yl)-1-methyl-1H-pyrazolo[4,3-c]pyridine-6-carboxamide]: at R232-STING, the Ki was determined as 87.5 nM. For the same compound, the EC50 was 6310 nM in assay [1] and 6420 nM in assay [2].

Regarding `Cc1cc(-c2cn(C)c(-c3nc(C(N)=O)cc4c3cnn4C)n2)n(CCCO)n1` [Example AIE01, 4-{4-[1-(3-hydroxypropyl)-3-methyl-1H-pyrazol-5-yl]-1-methyl-1H-imidazol-2-yl}-1-methyl-1H-pyrazolo[4,3-c]pyridine-6-carboxamide], the Ki at R232-STING worked out at 3.6 nM. The EC50 in assay [1] was 220 nM; in assay [2] it was 200 nM.

`CCCn1nc(C)cc1-c1cn(C)c(-c2nc(C(N)=O)cc3c2cnn3C)n1` [Example AIF01, 1-methyl-4-[1-methyl-4-(3-methyl-1-propyl-1H-pyrazol-5-yl)-1H-imidazol-2-yl]-1H-pyrazolo[4,3-c]pyridine-6-carboxamide]: the inhibition constant (Ki) at R232-STING was found to be 9.8 nM. Also, the EC50 in assay [1] turned out to be 540 nM; in assay [2], 500 nM.

Regarding `CCn1nc(C)cc1-c1cn(C)c(-c2nc(C(N)=O)nc3c2cnn3C)n1` [Example AIG01, 4-[4-(1-ethyl-3-methyl-1H-pyrazol-5-yl)-1-methyl-1H-imidazol-2-yl]-1-methyl-1H-pyrazolo[3,4-d]pyrimidine-6-carboxamide], the Ki on R232-STING stood at 81.8 nM. Also, the EC50 in assay [1] and in assay [2] was more than 10000 nM throughout.
